Assay [1] deals with Mycobacterium tuberculosis variant bovis. Nature of the assay: Antimycobacterial activity against Mycobacterium bovis BCG ATCC 35734 after 5 days by broth dilution method. Type of assay: functional. The following applies: ATCC 35734, 120 h.
Assay [2] has the same test system. As to the kind of experiment: Antimycobacterial activity against Mycobacterium bovis BCG ATCC 35734 assessed as growth inhibition at 10 uM after 5 days relative to control. It counts as functional. As to conditions: ATCC 35734, 120 h, read-out: GI.

Converted amounts (≈) assume the structure as drawn.

`CCCCCCCCn1ccc2c(F)cccc21`: in assay [1], the MIC50 is more than 50 µM and the MIC90 was more than 50 µM. Besides, the inhibition of growth at 10 µM in assay [2] came out at 99%.

In assay [1], `Fc1ccc2c(c1)c(CN1CCCCC1)cn2CCCOc1ccccc1` showed an MIC50 of 19 µM (≈ 6.96 µg/mL) and an MIC90 of 50 µM (≈ 18.3 µg/mL). In assay [2], the inhibition of growth at 10 µM was 99%.

`CCCCCCCCn1cc(CN2CCN(C)CC2)c2cc(F)ccc21`: in assay [1], the MIC50 turned out to be 13 µM (≈ 4.67 µg/mL) and the MIC90 amounted to 36 µM (≈ 12.9 µg/mL). Further, the inhibition of growth at 10 µM in assay [2] is 99%.

In the case of `CC(C)=CCC/C(C)=C/Cn1cc(CN2CCCCC2)c2cccnc21`, in assay [1], the MIC50 was more than 50 µM and the MIC90 is more than 50 µM. Also, the inhibition of growth at 10 µM in assay [2] amounted to 99%.

As to `COc1ccc2c(c1)c(CN1CCCCC1)cn2C/C=C(\C)CCC=C(C)C`, in assay [1], the MIC50 came to 9 µM (≈ 3.43 µg/mL) and the MIC90 turned out to be 12 µM (≈ 4.57 µg/mL). In addition, the inhibition of growth at 10 µM in assay [2] stood at 99%.

In assay [1], `CCCCCCn1cc(CN2CCCCCC2)c2c(F)cccc21` had an MIC50 of 8 µM (≈ 2.64 µg/mL) and an MIC90 of 13 µM (≈ 4.3 µg/mL). For the same compound, in assay [2], the inhibition of growth at 10 µM is 99%.

On to `CCCCCCCCn1cc(CNC2CCCCCC2)c2cc(F)ccc21`, for which, in assay [1], the MIC50 was 3 µM (≈ 1.12 µg/mL) and the MIC90 turned out to be 16 µM (≈ 5.96 µg/mL). Moreover, the inhibition of growth at 10 µM in assay [2] is 99%.

In the case of `CC(C)=CCC/C(C)=C/Cn1ccc2cc(F)ccc21`, in assay [1], the MIC50 is more than 50 µM and the MIC90 was more than 50 µM. Moreover, in assay [2], the inhibition of growth at 10 µM came to 99%.

Regarding `CCCN(C)Cc1cn(C/C=C(\C)CCC=C(C)C)c2ccc(F)cc12`, in assay [1], the MIC50 amounted to 13 µM (≈ 4.63 µg/mL) and the MIC90 was found to be 28.5 µM (≈ 10.2 µg/mL). Besides, the inhibition of growth at 10 µM in assay [2] was determined as 99%.

`CCCCCCCCn1cc(CN2CCCCCC2)c2cc(F)ccc21`: in assay [1], the MIC50 turned out to be 4 µM (≈ 1.43 µg/mL) and the MIC90 was 6 µM (≈ 2.15 µg/mL). Further, in assay [2], the inhibition of growth at 10 µM is 99%.

In assay [1], `O=C(Cn1cc(CN2CCCCC2)c2cc(F)ccc21)NC1CC1` gave an MIC50 of more than 50 µM and an MIC90 of more than 50 µM. Besides, in assay [2], the inhibition of growth at 10 µM was 99%.

As for `CCCCCCCCn1cc(CN2CCC3(CC2)OCCO3)c2ccc(F)cc21`, in assay [1], the MIC50 came to 3 µM (≈ 1.21 µg/mL) and the MIC90 was determined as 5 µM (≈ 2.01 µg/mL). For the same compound, in assay [2], the inhibition of growth at 10 µM was found to be 99%.

As to `CCCCCCCCn1cc(CNC(C)C)c2cc(F)ccc21`, in assay [1], the MIC50 was found to be 12 µM (≈ 3.82 µg/mL) and the MIC90 is 26 µM (≈ 8.28 µg/mL). In addition, the inhibition of growth at 10 µM in assay [2] was 99%.

With `CCCCn1cc(CN2CCCCC2)c2cc(F)ccc21`, in assay [1], the MIC50 is more than 50 µM and the MIC90 was determined as 100 µM (≈ 28.8 µg/mL). The inhibition of growth at 10 µM in assay [2] was 99%.

In assay [1], `CCCCCCCCn1cc(CN2CCC(C)CC2)c2cccc(OC)c21` yielded an MIC50 of 4 µM (≈ 1.48 µg/mL) and an MIC90 of 8 µM (≈ 2.96 µg/mL). Moreover, the inhibition of growth at 10 µM in assay [2] stood at 99%.

In assay [1], `CCCCCCCCn1cc(CN2CCCCCC2)c2ccc(F)cc21` showed an MIC50 of 4 µM (≈ 1.43 µg/mL) and an MIC90 of 6 µM (≈ 2.15 µg/mL). Also, in assay [2], the inhibition of growth at 10 µM amounted to 99%.

In assay [1], `CCCCCCCCn1cc(CN2CCCCC2)c2cc(Cl)ccc21` returned an MIC50 of 5 µM (≈ 1.8 µg/mL) and an MIC90 of 9 µM (≈ 3.25 µg/mL). Besides, the inhibition of growth at 10 µM in assay [2] was 99%.

As for `CCCCCCCCn1cc(CNC23CC4CC(CC(C4)C2)C3)c2cccc(OC)c21`, in assay [1], the MIC50 was 3 µM (≈ 1.27 µg/mL) and the MIC90 was determined as 8 µM (≈ 3.38 µg/mL). For the same compound, in assay [2], the inhibition of growth at 10 µM amounted to 99%.

In assay [1], `CCCCCCCCn1cc(CN(CCC)CCC)c2cc(F)ccc21` yielded an MIC50 of 11 µM (≈ 3.97 µg/mL) and an MIC90 of 35 µM (≈ 12.6 µg/mL). Also, the inhibition of growth at 10 µM in assay [2] came out at 99%.

In assay [1], `CCCCCCCCn1cc(CNC23CC4CC(CC(C4)C2)C3)c2cc(F)ccc21` displayed an MIC50 of 2.5 to 3 µM (≈ 1.03 to 1.23 µg/mL) and an MIC90 of 5.5 to 6 µM (≈ 2.26 to 2.46 µg/mL). In addition, in assay [2], the inhibition of growth at 10 µM worked out at 99%.

In the case of `CCCCCCCCn1cc(CN(C)C)c2cc(F)ccc21`, in assay [1], the MIC50 is 14 µM (≈ 4.26 µg/mL) and the MIC90 worked out at 20 µM (≈ 6.09 µg/mL). For the same compound, in assay [2], the inhibition of growth at 10 µM is 99%.

For `CCN(CC)Cc1cn(C/C=C(\C)CCC=C(C)C)c2ccc(F)cc12`, in assay [1], the MIC50 was determined as 13 µM (≈ 4.63 µg/mL) and the MIC90 was 24 µM (≈ 8.56 µg/mL). In assay [2], the inhibition of growth at 10 µM was found to be 99%.

The values are drawn from ChEMBL document CHEMBL4007488, “Amphiphilic Indole Derivatives as Antimycobacterial Agents: Structure-Activity Relationships and Membrane Targeting Properties” (J Med Chem, 2017).
